Laboratory results taken from patent publication US6358883B1, “Pesticidal and parasiticidal use of 1-aryl-1-(substituted thio, sulfinyl and sulfonyl)-2-nitroethane compounds” (American Cyanamid Company, priority 1998, dated 2002).

Assays:
Format in all cases: in vivo
[1] = system: C. elegans (Bristol strain); assay: Evaluation of test compounds against C. elegans (motility, 96-well plate); parameters: key: 9=complete kill in 4 hours; 8=complete kill in 24 hours; 7=markedly reduced motility in approximately 95% of worms in 24 hours; 0=normal motility, same as controls; conditions: motility at 4 and 24 hours
Procedure, shortened: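 Activity is a semi-quantitative visual score of adult and larval movement, read at 4 h and 24 h post-immersion at 20 °C after gentle tapping. Worms were suspended in Na buffer in wells where compound, dissolved in 80% acetone, had been evaporated.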

[2] = system: Tetranychus urticae (OP-resistant strain), 2-spotted spider mite (TSM); assay: 2-spotted spider mite (TSM) plant dip test; parameters: key: 0 = no effect; 1 = 10-25% kill; 2 = 26-35% kill; 3 = 36-45% kill; 4 = 46-55% kill; 5 = 56-65% kill; 6 = 66-75% kill; 7 = 76-85% kill; 8 = 86-99% kill; 9 = 100% kill; conditions: mortality after 2 days
Procedure, shortened: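 Mortality counted 2 days after a 3 s agitated dip of infested Sieva lima bean plants. Compound came from a 10,000 ppm stock in 35% aqueous acetone, with further dilution in water. Each primary leaf carried about 100 OP-resistant mites, allowed to settle ~2 h before dipping.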

[3] = system: Diabrotica virgifera virgifera Leconte, 2nd instar western corn rootworm (WCR); assay: Western corn rootworm (WCR) soil test; parameters: key: 0 = no effect; 1 = 10-25% kill; 2 = 26-35% kill; 3 = 36-45% kill; 4 = 46-55% kill; 5 = 56-65% kill; 6 = 66-75% kill; 7 = 76-85% kill; 8 = 86-99% kill; 9 = 100% kill
Procedure, shortened: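 Ten 2nd-instar rootworm larvae are placed in jars of moist soil with millet seed and talc treated with 1.25 mg active ingredient (roughly 50 kg/ha) from a 35% acetone-in-water solution. After 5 days mortality is scored, counting missing larvae as dead.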

[4] = system: Spodoptera eridania, 2nd instar larvae, southern armyworm (SAW); assay: Southern armyworm (SAW) leaf dip test; parameters: key: 0 = no effect; 1 = 10-25% kill; 2 = 26-35% kill; 3 = 36-45% kill; 4 = 46-55% kill; 5 = 56-65% kill; 6 = 66-75% kill; 7 = 76-85% kill; 8 = 86-99% kill; 9 = 100% kill
Procedure, shortened: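 Ten 2nd instar caterpillars feed on a Sieva lima bean leaf that was dipped 3 seconds in test solution (stock 10,000 ppm in 35% acetone/water, water-diluted). Five days later, larvae are assessed for death, feeding reduction or abnormal molting.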

[5] = system: Aphis gossypii, cotton aphid (CA); assay: Cotton aphid (CA) cotyledon dip test; parameters: key: 0 = no effect; 1 = 10-25% kill; 2 = 26-35% kill; 3 = 36-45% kill; 4 = 46-55% kill; 5 = 56-65% kill; 6 = 66-75% kill; 7 = 76-85% kill; 8 = 86-99% kill; 9 = 100% kill; conditions: mortality after 5 days
Procedure, shortened: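 Mortality was scored 5 days after dipping aphid-infested cotyledons, colonised overnight from a transfer leaf, into water dilutions of a 35% acetone/water compound solution.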

[6] = system: M. incognita (Root Knot Nematode) larvae; assay: Evaluation of test compounds against M. incognita larvae in microtiter plate wells (movement score); conditions: larvae scored for movement after 20-24 hours; note: key: A score of '9' indicates inactive worms with a straight, sticklike morphology; A score of '8' indicates inactive worms with a limp, curled or curved morphology; A score of '7' indicates dead/paralyzed worms after 72 hours
Procedure, shortened: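 Scoring is by larval movement: dead or paralyzed worms count as positive, and a "7" means dead/paralyzed at 72 hours. Freshly hatched root-knot larvae (50-65 per well) in buffered S Medium were incubated with compounds under plate sealers for 20-24 h before the first read.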

[7] = system: Diabrotica undecimpunctata howardi, eggs-southern corn rootworm (SCR-Eggs); assay: Southern corn rootworm eggs (SCR-Eggs) treated diet test; parameters: key: 0 = no effect; 1 = 10-25% kill; 2 = 26-35% kill; 3 = 36-45% kill; 4 = 46-55% kill; 5 = 56-65% kill; 6 = 66-75% kill; 7 = 76-85% kill; 8 = 86-99% kill; 9 = 100% kill; conditions: mortality after 7 days
Procedure, shortened: (§1)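 Eggs of S. eridania or D. undecimpunctata howardi were set on artificial diet pretreated with test solution (10,000 ppm stock in 35% aqueous acetone, water dilutions) and dried. Wells were sealed with vented clear covers, and mortality was scored at day 7.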

[8] = system: Spodoptera eridania, eggs-southern armyworm (SAW-Eggs); assay: Southern armyworm eggs (SAW-Eggs) treated diet test; parameters: key: 0 = no effect; 1 = 10-25% kill; 2 = 26-35% kill; 3 = 36-45% kill; 4 = 46-55% kill; 5 = 56-65% kill; 6 = 66-75% kill; 7 = 76-85% kill; 8 = 86-99% kill; 9 = 100% kill; conditions: mortality after 7 days
Procedure, shortened: as §1

Compound: C=CCSC(C[N+](=O)[O-])c1ccc2ccccc2c1 (centres unmarked) [Example 125]
- Rating Against C. elegans (150 ppm) [1]: 0
- TSM (300 ppm) rating [2]: 0
- WCR (50 ppm) rating [3]: 0
- SAW (300 ppm) rating [4]: 0
- CA (300 ppm) rating [5]: 0
- M. incognita (150 ppm) score [6]: 0
- SCR Eggs (1000 ppm) rating [7]: 0
- SAW Eggs (300 ppm) rating [8]: 0

Compound: COC(=O)CSC(C[N+](=O)[O-])c1ccc(OC)cc1 (centres unmarked) [Example 47]
- Rating Against C. elegans (150 ppm) [1]: 9
- TSM (300 ppm) rating [2]: 4 (4 = 46-55% kill)
- WCR (50 ppm) rating [3]: 4 (4 = 46-55% kill)
- SAW (300 ppm) rating [4]: 0
- CA (300 ppm) rating [5]: 0
- M. incognita (150 ppm) score [6]: 9
- SCR Eggs (1000 ppm) rating [7]: 0
- SAW Eggs (300 ppm) rating [8]: 0

Compound: CCCOC(=O)CSC(C[N+](=O)[O-])c1ccc(OC)cc1 (racemic) [Example 102]
- Rating Against C. elegans (150 ppm) [1]: 9
- TSM (300 ppm) rating [2]: 0
- WCR (50 ppm) rating [3]: 0
- SAW (300 ppm) rating [4]: 0
- CA (300 ppm) rating [5]: 0
- M. incognita (150 ppm) score [6]: 9
- SCR Eggs (1000 ppm) rating [7]: 0
- SAW Eggs (300 ppm) rating [8]: 0

Compound: CCCCOC(=O)CSC(C[N+](=O)[O-])c1ccc(OC(F)(F)F)cc1 (racemic) [Example 120]
- Rating Against C. elegans (150 ppm) [1]: 0
- TSM (300 ppm) rating [2]: 0
- WCR (50 ppm) rating [3]: 0
- SAW (300 ppm) rating [4]: 0
- CA (300 ppm) rating [5]: 0
- M. incognita (150 ppm) score [6]: 9
- SCR Eggs (1000 ppm) rating [7]: 0
- SAW Eggs (300 ppm) rating [8]: 0

Compound: O=C(CSC(C[N+](=O)[O-])c1c(Cl)cccc1Cl)OCc1ccccc1 (centres unmarked) [Example 135]
- Rating Against C. elegans (150 ppm) [1]: 0
- TSM (300 ppm) rating [2]: 0
- WCR (50 ppm) rating [3]: 0
- SAW (300 ppm) rating [4]: 0
- CA (300 ppm) rating [5]: 0
- M. incognita (150 ppm) score [6]: 0
- SCR Eggs (1000 ppm) rating [7]: 9 (9 = 100% kill)
- SAW Eggs (300 ppm) rating [8]: 0

Compound: CCOC(=O)CSC(C[N+](=O)[O-])c1ccc(OC(F)(F)F)cc1 (racemic) [Example 118]
- Rating Against C. elegans (150 ppm) [1]: 8
- TSM (300 ppm) rating [2]: 0
- WCR (50 ppm) rating [3]: 0
- SAW (300 ppm) rating [4]: 0
- CA (300 ppm) rating [5]: 0
- M. incognita (150 ppm) score [6]: 0
- SCR Eggs (1000 ppm) rating [7]: 0
- SAW Eggs (300 ppm) rating [8]: 9 (9 = 100% kill)

Compound: CCCOC(=O)CSC(C[N+](=O)[O-])c1c(Cl)cccc1Cl (centres unmarked) [Example 133]
- Rating Against C. elegans (150 ppm) [1]: 0
- TSM (300 ppm) rating [2]: 0
- WCR (50 ppm) rating [3]: 0
- SAW (300 ppm) rating [4]: 0
- CA (300 ppm) rating [5]: 0
- M. incognita (150 ppm) score [6]: 0
- SCR Eggs (1000 ppm) rating [7]: 9 (9 = 100% kill)
- SAW Eggs (300 ppm) rating [8]: 0

Compound: CCCCOC(=O)CSC(C[N+](=O)[O-])c1c(Cl)cccc1Cl (centres unmarked) [Example 134]
- Rating Against C. elegans (150 ppm) [1]: 0
- TSM (300 ppm) rating [2]: 0
- WCR (50 ppm) rating [3]: 0
- SAW (300 ppm) rating [4]: 0
- CA (300 ppm) rating [5]: 0
- M. incognita (150 ppm) score [6]: 0
- SCR Eggs (1000 ppm) rating [7]: 0
- SAW Eggs (300 ppm) rating [8]: 0

Compound: C=CCSC(C[N+](=O)[O-])c1cccc([N+](=O)[O-])c1 (centres unmarked) [Example 129]
- Rating Against C. elegans (150 ppm) [1]: 0
- TSM (300 ppm) rating [2]: 0
- WCR (50 ppm) rating [3]: 0
- SAW (300 ppm) rating [4]: 0
- CA (300 ppm) rating [5]: 0
- M. incognita (150 ppm) score [6]: 0
- SCR Eggs (1000 ppm) rating [7]: 0
- SAW Eggs (300 ppm) rating [8]: 0

Compound: COc1cccc(C(C[N+](=O)[O-])SCC(=O)OCc2ccccc2)c1 (racemic) [Example 107]
- Rating Against C. elegans (150 ppm) [1]: 0
- TSM (300 ppm) rating [2]: 0
- WCR (50 ppm) rating [3]: 0
- SAW (300 ppm) rating [4]: 0
- CA (300 ppm) rating [5]: 0
- M. incognita (150 ppm) score [6]: 0
- SCR Eggs (1000 ppm) rating [7]: 0
- SAW Eggs (300 ppm) rating [8]: 0

Compound: O=[N+]([O-])CC(SCc1ccccc1)c1cccnc1 (centres unmarked) [Example 177]
- Rating Against C. elegans (150 ppm) [1]: 0
- TSM (300 ppm) rating [2]: 0
- WCR (50 ppm) rating [3]: 0
- SAW (300 ppm) rating [4]: 0
- CA (300 ppm) rating [5]: 0
- M. incognita (150 ppm) score [6]: 9
- SCR Eggs (1000 ppm) rating [7]: 0
- SAW Eggs (300 ppm) rating [8]: 0

Compound: CCCOC(=O)CSC(C[N+](=O)[O-])c1cccc(C#N)c1 (racemic) [Example 100]
- Rating Against C. elegans (150 ppm) [1]: 8
- TSM (300 ppm) rating [2]: 0
- WCR (50 ppm) rating [3]: 0
- SAW (300 ppm) rating [4]: 0
- CA (300 ppm) rating [5]: 0
- M. incognita (150 ppm) score [6]: 0
- SCR Eggs (1000 ppm) rating [7]: 0
- SAW Eggs (300 ppm) rating [8]: 0

Compound: O=C(O)CSC(C[N+](=O)[O-])c1c(Cl)cccc1Cl (centres unmarked) [Example 130]
- Rating Against C. elegans (150 ppm) [1]: 9
- TSM (300 ppm) rating [2]: 0
- WCR (50 ppm) rating [3]: 3 (3 = 36-45% kill)
- SAW (300 ppm) rating [4]: 0
- CA (300 ppm) rating [5]: 0
- M. incognita (150 ppm) score [6]: 9
- SCR Eggs (1000 ppm) rating [7]: 0
- SAW Eggs (300 ppm) rating [8]: 0

Compound: CCCSC(C[N+](=O)[O-])c1ccc2c(c1)OCO2 (centres unmarked) [Example 24]
- Rating Against C. elegans (150 ppm) [1]: 8
- TSM (300 ppm) rating [2]: 0
- WCR (50 ppm) rating [3]: 0
- SAW (300 ppm) rating [4]: 0
- CA (300 ppm) rating [5]: 0
- M. incognita (150 ppm) score [6]: 9
- SCR Eggs (1000 ppm) rating [7]: 0
- SAW Eggs (300 ppm) rating [8]: 0

Compound: C=CCSC(C[N+](=O)[O-])c1cccnc1 (centres unmarked) [Example 176]
- Rating Against C. elegans (150 ppm) [1]: 0
- TSM (300 ppm) rating [2]: 0
- WCR (50 ppm) rating [3]: 0
- SAW (300 ppm) rating [4]: 0
- CA (300 ppm) rating [5]: 0
- M. incognita (150 ppm) score [6]: 9
- SCR Eggs (1000 ppm) rating [7]: 0
- SAW Eggs (300 ppm) rating [8]: 0

Compound: CCOC(=O)CSC(C[N+](=O)[O-])c1c(Cl)cccc1Cl (centres unmarked) [Example 132]
- Rating Against C. elegans (150 ppm) [1]: 0
- TSM (300 ppm) rating [2]: 0
- WCR (50 ppm) rating [3]: 0
- SAW (300 ppm) rating [4]: 0
- CA (300 ppm) rating [5]: 0
- M. incognita (150 ppm) score [6]: 0
- SCR Eggs (1000 ppm) rating [7]: 9 (9 = 100% kill)
- SAW Eggs (300 ppm) rating [8]: 9 (9 = 100% kill)

Compound: COc1ccc(C(C[N+](=O)[O-])SCC(=O)OCCCCCC(C)C)cc1 (centres unmarked) [Example 50]
- Rating Against C. elegans (150 ppm) [1]: 7
- TSM (300 ppm) rating [2]: 0
- WCR (50 ppm) rating [3]: 0
- SAW (300 ppm) rating [4]: 0
- CA (300 ppm) rating [5]: 0
- M. incognita (150 ppm) score [6]: 0
- SCR Eggs (1000 ppm) rating [7]: 0
- SAW Eggs (300 ppm) rating [8]: 9 (9 = 100% kill)

Compound: CCOC(=O)CSC(C[N+](=O)[O-])c1ccc2ccccc2c1 (racemic) [Example 111]
- Rating Against C. elegans (150 ppm) [1]: 8
- TSM (300 ppm) rating [2]: 0
- WCR (50 ppm) rating [3]: 0
- SAW (300 ppm) rating [4]: 0
- CA (300 ppm) rating [5]: 0
- M. incognita (150 ppm) score [6]: 0
- SCR Eggs (1000 ppm) rating [7]: 0
- SAW Eggs (300 ppm) rating [8]: 8 (8 = 86-99% kill)

Compound: O=C(O)CSC(C[N+](=O)[O-])c1ccc2ccccc2c1 (racemic) [Example 109]
- Rating Against C. elegans (150 ppm) [1]: 9
- TSM (300 ppm) rating [2]: 0
- WCR (50 ppm) rating [3]: 0
- SAW (300 ppm) rating [4]: 0
- CA (300 ppm) rating [5]: 0
- M. incognita (150 ppm) score [6]: 0
- SCR Eggs (1000 ppm) rating [7]: 0
- SAW Eggs (300 ppm) rating [8]: 0
